Results as given in patent publication US20260284079A1, “LIPID PRODRUGS OF ALLOPR[…] USES THEREOF” (Seaport Therapeutics, Inc., priority 2023, published 2026).

Test system: salivary cortisol levels
Assay: Trier Social Stress Test (TSST), salivary cortisol (Example 2)
Assay type: in vivo, human
Procedure: A double-blind, placebo-controlled study was performed in 80 healthy participants to determine the effects of a single dose of Compound 1 in a validated and standardized behavioral challenge, the Trier Social Stress Test (TSST). The TSST is a reliable behavioral model used to examine the neurobiological response to acute stress in humans, whereby an acute stress (and associated acute stress response) is induced under experimentally controlled conditions. The TSST induces stress through public speaking. It incorporates social evaluation and unpredictability, by obliging the person to speak in front of an unresponsive audience and is further followed by a surprise mental arithmetic test. The TSST combines elements of a social-evaluative threat and uncontrollability to produce a consistent and robust physiological and psychological stress response in humans. On the day of the study, the participant was tasked with a speech prompt, for which they had 3 minutes to prepare. The participant was then required to present the speech for 5 minutes to a panel while under the pretense of being recorded. Following the speech, participants were given an unexpected mental arithmetic task. The TSST is more fully described in Allen A et al., Neurobiol. Stress (2017), February; 6:113-126.
The study included a validation cohort and a randomized cohort. The validation cohort (n=10) was given placebo for the purposes of validating the TSST and study endpoints. The randomized cohort […] were randomized and stratified by sex to placebo or 375 mg of Compound 1 in a 1:1 ratio. The cohorts are described in Table 14. An overview of the TSST study design is also depicted in FIG. 4C.
Compound 1 was formulated in combination with excipients Peceol™ (glyceryl monooleate), Kolliphor® RH40 (macrogolglycerol hydroxystearate) and super-refined sesame oil as a clear to yellow viscous solution. Each gram of formulation contains 300 mg of Compound 1, 189 mg of Peceol™, 336 mg Kolliphor® RH40, and 175 mg of super-refined sesame oil. To prepare the final dosage, the required quantity is manually filled into size 17.5 oblong capsules. The placebo contained vehicle only, i.e., the above formulation without Compound 1.
The objective of the study was to evaluate the efficacy of Compound 1 vs. placebo in blunting the response to endpoints measured during and after the TSST procedure. The primary efficacy endpoint was the change from baseline (before TSST procedure) to the peak (maximum change) in salivary cortisol levels as measured before, during, and after the TSST procedure. The primary outcome for determining this was salivary cortisol levels. The key secondary outcomes were be the Numerical Rating Scale (NRS) for stress, anxiety, fear, embarrassment, and excitement. Additional secondary outcomes were the State Trait Anxiety Index (STAI), and blood pressure. Safety and tolerability (i.e., incidence, severity, and duration of treatment-emergent adverse events (TEAEs), serious adverse events (SAEs), and incidence of other clinically relevant signs) were also monitored. Prior to the TSST, a post-dose sample was collected for pharmacokinetic analysis.
To normalize for food effects, participants were served a standardized meal to be consumed approximately 30 minutes prior to dosing with Compound 1. Compound 1 was administered with 240 mL of RT water ~3-4 hours prior to the start of the TSST.
Cortisol levels (including, for example, salivary cortisol levels) are a robust and sensitive marker of stress and the stress hormone response. Salivary cortisol concentrations were collected and measured throughout the study, with the primary endpoint being the maximum change from baseline (pre-TSST).

CCCCCCCC(=O)OCC(COC(=O)CCCCCCC)OC(=O)CC(C)CC(=O)OCOC(=O)O[C@@H]1CC[C@@]2(C)[C@@H](CC[C@@H]3[C@@H]2CC[C@]2(C)[C@@H](C(C)=O)CC[C@@H]32)C1 (stereo partly shown) [Compound 1]
decrease in salivary cortisol levels versus placebo, maximum non-transformed mean (375 mg): ~ 2.2 ×
time during which blunting of salivary cortisol was significantly different from placebo (375 mg): up to 30 minutes post-end of TSST
treatment effect size versus placebo, Cohen's d (375 mg): 0.72
reduction in salivary cortisol levels post-TSST (375 mg, 10 minutes post-TSST): 62.8%
reduction in salivary cortisol levels post-TSST (375 mg, 60 minutes post-TSST): 45.5%
mean reduction in salivary cortisol levels post-TSST (375 mg, across all time points): 54.4%
blunting of increases in salivary cortisol levels, LSMean change from baseline (pre-TSST) (single 375 mg oral dose ~3-4 hours before TSST): partial blunting
